According to ChEMBL document CHEMBL1142377, “Discovery of a novel class of 1,3-dioxane-2-carboxylic acid derivatives as subtype-selective peroxisome proliferator-activated receptor alpha (PPARalpha) agonists” (Bioorg Med Chem Lett, 2008):
Each block holds one compound with its values, some of them ahead of it.

Assays:
[1] = molecular target: T1, Peroxisome proliferator-activated receptor gamma (Mus musculus, UniProt P37238); assay: Agonist activity at mouse PPARgamma by transactivation assay; assay type: functional
T1 sequence (P37238 whole entry): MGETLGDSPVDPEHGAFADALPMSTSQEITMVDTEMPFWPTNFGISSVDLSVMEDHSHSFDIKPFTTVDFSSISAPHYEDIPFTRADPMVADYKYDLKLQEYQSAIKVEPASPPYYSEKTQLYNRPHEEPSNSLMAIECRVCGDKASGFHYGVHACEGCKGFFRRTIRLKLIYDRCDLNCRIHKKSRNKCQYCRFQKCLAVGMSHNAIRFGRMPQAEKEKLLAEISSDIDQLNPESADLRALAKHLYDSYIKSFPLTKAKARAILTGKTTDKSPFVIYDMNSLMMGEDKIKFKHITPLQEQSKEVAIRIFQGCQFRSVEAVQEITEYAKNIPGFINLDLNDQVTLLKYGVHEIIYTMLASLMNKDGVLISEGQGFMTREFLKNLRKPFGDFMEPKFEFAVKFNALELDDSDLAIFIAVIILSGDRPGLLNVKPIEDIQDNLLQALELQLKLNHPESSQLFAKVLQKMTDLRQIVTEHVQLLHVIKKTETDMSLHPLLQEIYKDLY

Mus musculus [2] = assay: Hypolipidemic effect on diabetic KKAy mouse model assessed as reduction of plasma triglyceride level at 3 mg/kg, po QD for 4 days; assay type: functional; design: scale not given: the % may be the effect or the level left
[3] = molecular target: T2, Peroxisome proliferator-activated receptor delta (Mus musculus) (UniProt P35396); assay: Agonist activity at mouse PPARdelta at 10 uM by transactivation assay; assay type: functional
T2 sequence (whole entry): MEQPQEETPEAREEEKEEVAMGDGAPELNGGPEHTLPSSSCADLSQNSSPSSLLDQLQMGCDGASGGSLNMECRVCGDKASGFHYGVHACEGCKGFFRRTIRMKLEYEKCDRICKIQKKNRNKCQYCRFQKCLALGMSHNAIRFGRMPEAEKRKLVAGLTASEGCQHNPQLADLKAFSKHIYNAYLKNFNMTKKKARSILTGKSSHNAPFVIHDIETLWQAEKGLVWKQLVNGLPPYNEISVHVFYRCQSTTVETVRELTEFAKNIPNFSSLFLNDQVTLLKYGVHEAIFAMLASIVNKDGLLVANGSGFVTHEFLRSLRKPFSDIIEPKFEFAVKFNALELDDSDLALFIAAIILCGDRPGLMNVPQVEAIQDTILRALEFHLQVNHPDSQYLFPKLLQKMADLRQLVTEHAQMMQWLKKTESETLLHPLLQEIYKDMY

Mus musculus [4] = assay: (§1) Hypolipidemic effect on diabetic KKAy mouse model assessed as increase in HDL cholesterol level at 3 mg/kg, po QD for 4 days; assay type: functional
[5] = molecular target: T3, Peroxisome proliferator-activated receptor alpha (Homo sapiens, UniProt Q07869); assay: Agonist activity at human PPARalpha expressed in monkey CV1 cells by transactivation assay; assay type: functional, cell-based, CV-1
T3 sequence (Q07869 whole entry): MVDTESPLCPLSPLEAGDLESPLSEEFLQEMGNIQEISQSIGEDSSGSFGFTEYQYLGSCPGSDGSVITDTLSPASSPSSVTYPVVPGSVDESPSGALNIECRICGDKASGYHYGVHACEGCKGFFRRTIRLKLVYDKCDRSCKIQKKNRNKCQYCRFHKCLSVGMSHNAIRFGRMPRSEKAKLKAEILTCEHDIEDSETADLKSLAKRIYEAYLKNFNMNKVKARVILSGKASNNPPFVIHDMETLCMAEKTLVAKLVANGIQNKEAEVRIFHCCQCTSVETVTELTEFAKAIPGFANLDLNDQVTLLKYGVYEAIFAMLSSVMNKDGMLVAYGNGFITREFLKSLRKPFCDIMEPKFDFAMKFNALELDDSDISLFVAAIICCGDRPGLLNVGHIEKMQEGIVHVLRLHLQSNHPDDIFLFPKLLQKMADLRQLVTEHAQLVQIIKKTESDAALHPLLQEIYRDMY

Mus musculus [6] = assay: Hypoglycemic effect on diabetic KKAy mouse model assessed as reduction of plasma glucose level at 3 mg/kg, po QD for 4 days; assay type: functional; design: scale not given: the % may be the effect or the level left
[7] = molecular target: T4, Peroxisome proliferator-activated receptor alpha (Mus musculus, UniProt P23204); assay: Agonist activity at mouse PPARalpha by transactivation assay; assay type: functional
T4 sequence (P23204 whole entry): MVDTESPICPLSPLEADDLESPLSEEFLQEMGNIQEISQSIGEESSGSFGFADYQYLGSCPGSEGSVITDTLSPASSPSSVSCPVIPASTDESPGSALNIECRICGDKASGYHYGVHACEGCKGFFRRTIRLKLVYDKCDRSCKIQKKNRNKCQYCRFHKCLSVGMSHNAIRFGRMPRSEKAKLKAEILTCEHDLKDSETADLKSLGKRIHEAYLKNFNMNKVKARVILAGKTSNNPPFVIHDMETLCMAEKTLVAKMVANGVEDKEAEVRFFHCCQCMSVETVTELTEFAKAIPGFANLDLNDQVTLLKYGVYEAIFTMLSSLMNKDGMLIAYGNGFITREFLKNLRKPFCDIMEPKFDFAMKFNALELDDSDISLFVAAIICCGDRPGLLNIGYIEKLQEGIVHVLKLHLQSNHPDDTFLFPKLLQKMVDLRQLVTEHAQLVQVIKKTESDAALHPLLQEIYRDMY

[8] = molecular target: T5, Peroxisome proliferator-activated receptor delta (Homo sapiens) (UniProt Q03181); assay: Agonist activity at human PPARdelta expressed in monkey CV1 cells at 10 uM by transactivation assay; assay type: functional, cell-based; conditions: CV-1
T5 sequence (whole entry): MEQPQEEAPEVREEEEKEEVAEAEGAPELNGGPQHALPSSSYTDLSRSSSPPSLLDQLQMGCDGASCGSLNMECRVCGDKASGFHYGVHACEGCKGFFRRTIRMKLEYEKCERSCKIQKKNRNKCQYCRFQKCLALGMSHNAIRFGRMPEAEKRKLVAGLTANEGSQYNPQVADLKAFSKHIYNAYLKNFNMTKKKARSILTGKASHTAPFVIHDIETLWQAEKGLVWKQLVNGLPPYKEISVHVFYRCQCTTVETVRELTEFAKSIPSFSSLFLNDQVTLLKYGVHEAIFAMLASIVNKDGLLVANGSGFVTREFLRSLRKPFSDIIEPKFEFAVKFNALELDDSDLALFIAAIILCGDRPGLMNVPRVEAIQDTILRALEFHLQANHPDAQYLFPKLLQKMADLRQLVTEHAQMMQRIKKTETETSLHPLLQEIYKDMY

[9] = molecular target: T6, Peroxisome proliferator-activated receptor gamma (Homo sapiens, UniProt P37231)
T6 sequence (P37231 whole entry): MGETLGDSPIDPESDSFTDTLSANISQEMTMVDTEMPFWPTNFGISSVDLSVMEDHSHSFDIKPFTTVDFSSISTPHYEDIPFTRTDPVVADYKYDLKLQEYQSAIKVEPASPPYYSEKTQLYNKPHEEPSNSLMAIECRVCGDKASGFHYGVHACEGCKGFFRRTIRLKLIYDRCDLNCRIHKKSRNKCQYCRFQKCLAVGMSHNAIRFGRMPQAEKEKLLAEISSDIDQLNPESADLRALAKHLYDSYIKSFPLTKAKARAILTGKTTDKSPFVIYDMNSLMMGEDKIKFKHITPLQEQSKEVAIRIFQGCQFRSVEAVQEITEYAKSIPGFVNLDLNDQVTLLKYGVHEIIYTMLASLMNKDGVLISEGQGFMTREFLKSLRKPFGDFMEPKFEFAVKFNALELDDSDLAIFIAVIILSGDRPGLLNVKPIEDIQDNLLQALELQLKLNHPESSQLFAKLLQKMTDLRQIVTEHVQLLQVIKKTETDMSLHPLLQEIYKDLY

Mus musculus [10] = assay: Hypolipidemic effect on diabetic KKAy mouse model assessed as reduction of VLDL cholesterol level at 3 mg/kg, po QD for 4 days; assay type: functional; design: scale not given: the % may be the effect or the level left
[11] = molecular target: T7, Peroxisome proliferator-activated receptor gamma (Homo sapiens) (UniProt P37231); assay: Agonist activity at human PPARgamma expressed in monkey CV1 cells at 10 uM by transactivation assay; assay type: functional, cell-based; conditions: CV-1
T7 sequence (whole entry): T6 sequence (P37231 whole entry)

[12] = molecular target: T8, Peroxisome proliferator-activated receptor alpha (Homo sapiens) (UniProt Q07869); assay: Agonist activity at human PPARalpha expressed in monkey CV1 cells at 10 uM by transactivation assay; assay type: functional, cell-based; conditions: CV-1
T8 sequence (whole entry): T3 sequence (Q07869 whole entry)

Homo sapiens [13] = species: Homo sapiens; assay: Selectivity of human PPARalpha over human PPARgamma
[14] = molecular target: T9, Peroxisome proliferator-activated receptor gamma (Mus musculus) (UniProt P37238); assay: Agonist activity at mouse PPARgamma at 10 uM by transactivation assay; assay type: functional
T9 sequence (whole entry): T1 sequence (P37238 whole entry)

Mus musculus [15] = assay: Hypolipidemic effect on diabetic KKAy mouse model assessed as reduction of plasma triglyceride level at 1 mg/kg, po QD for 4 days; assay type: functional; design: scale not given: the % may be the effect or the level left
Homo sapiens [16] = species: Homo sapiens; assay: Selectivity of human PPARalpha over human PPARdelta
Mus musculus [17] = assay: as §1; assay type: functional; remark: listed apart in the source
Mus musculus [18] = assay: Hypolipidemic effect on diabetic KKAy mouse model assessed as reduction of VLDL cholesterol level at 1 mg/kg, po QD for 4 days; assay type: functional; design: scale not given: the % may be the effect or the level left
Mus musculus [19] = assay: Hypoglycemic effect on diabetic KKAy mouse model assessed as reduction of plasma glucose level at 1 mg/kg, po QD for 4 days; assay type: functional; design: scale not given: the % may be the effect or the level left
Mus musculus [20] = assay: Hypolipidemic effect on diabetic KKAy mouse model assessed as increase in HDL cholesterol level at 300 mg/kg, po QD for 4 days; assay type: functional
Mus musculus [21] = assay: Hypoglycemic effect on diabetic KKAy mouse model assessed as reduction of plasma glucose level at 300 mg/kg, po QD for 4 days; assay type: functional; design: scale not given: the % may be the effect or the level left
Mus musculus [22] = assay: Hypolipidemic effect on diabetic KKAy mouse model assessed as reduction of plasma triglyceride level at 300 mg/kg, po QD for 4 days; assay type: functional; design: scale not given: the % may be the effect or the level left
Mus musculus [23] = assay: Hypolipidemic effect on diabetic KKAy mouse model assessed as reduction of VLDL cholesterol level at 300 mg/kg, po QD for 4 days; assay type: functional; design: scale not given: the % may be the effect or the level left
[24] = molecular target: T10, Peroxisome proliferator-activated receptor delta (Homo sapiens, UniProt Q03181); assay: Agonist activity at human PPARdelta expressed in monkey CV1 cells by transactivation assay; assay type: functional, cell-based, CV-1
T10 sequence (Q03181 whole entry): T5 sequence (whole entry)

EC50 [5]: 3 µM
Activity [8]: 28%
EC50 [9]: 1 µM
SMILES: Cc1oc(-c2ccccc2)nc1Cc1cccc(C[C@H]2CO[C@@](C)(C(=O)O)OC2)c1

EC50 [5]: 3 µM
Activity [8]: 7%
Activity [11]: 12%
SMILES: Cc1oc(-c2ccccc2)nc1Cc1cccc([C@H]2CO[C@@](C)(C(=O)O)OC2)c1

Activity [12]: 5%
Activity [8]: 0%
Activity [11]: 10%
SMILES: Cc1oc(-c2ccccc2)nc1Cc1ccc([C@H]2CO[C@@](C)(C(=O)O)OC2)cc1

Ratio EC50 (Homo sapiens [13]): > 300
Activity [3]: 6%
Activity [14]: 21%
Ratio EC50 (Homo sapiens [16]): > 300
Activity [8]: 0%
SMILES: Cc1oc(-c2ccccc2)nc1CCCC[C@H]1CO[C@@](C)(C(=O)O)OC1
Activity (Mus musculus [2]): 56%
Activity (Mus musculus [4]): 55%
Activity (Mus musculus [15]): 46%
Activity (Mus musculus [6]): 13%
Activity (Mus musculus [17]): 36%
Activity (Mus musculus [18]): 29%
Activity (Mus musculus [19]): 12%
Activity (Mus musculus [10]): 49%

Activity [12]: 8%
Activity [8]: 12%
Activity [11]: 2%
SMILES: Cc1oc(-c2ccccc2)nc1CCC[C@H]1CO[C@@](C)(C(=O)O)OC1

EC50 [5]: 3 µM
Activity [8]: 38%
EC50 [9]: 3 µM
SMILES: Cc1oc(-c2ccccc2)nc1Cc1ccc(C[C@H]2CO[C@@](C)(C(=O)O)OC2)cc1

More lines, now with the values behind:

SMILES: CC[C@]1(C(=O)O)OC[C@@H](CCCCc2nc(-c3ccccc3)oc2C)CO1
EC50 [1]: 10 µM
Activity (Mus musculus [2]): 52%
Activity [3]: 7%
Activity (Mus musculus [4]): 5%
EC50 [5]: 0.03 µM
Activity (Mus musculus [6]): 18%
EC50 [7]: 0.1 µM
Activity [8]: 19%
EC50 [9]: 10 µM
Activity (Mus musculus [10]): 26%

SMILES: Cc1oc(-c2ccccc2)nc1CCCC[C@H]1CO[C@](C)(C(=O)O)OC1
EC50 [5]: 3 µM
Activity [8]: 10%
EC50 [9]: 30 µM

SMILES: CC(C)(Oc1ccc(CCNC(=O)c2ccc(Cl)cc2)cc1)C(=O)O [BEZAFIBRATE]
EC50 [9]: 100 µM

SMILES: Cc1oc(-c2ccccc2)nc1CCCC[C@H]1CO[C@@H](C(=O)O)OC1
Activity [12]: 8%
Activity [8]: 3%
Activity [11]: 0%

SMILES: CC(C)OC(=O)C(C)(C)Oc1ccc(C(=O)c2ccc(Cl)cc2)cc1 [FENOFIBRATE]
Activity (Mus musculus [20]): 17%
Activity (Mus musculus [21]): 25%
Activity (Mus musculus [22]): 40%
Activity (Mus musculus [23]): 31%

SMILES: Cc1oc(-c2ccccc2)nc1CCCC[C@H]1CO[C@@](CC(C)C)(C(=O)O)OC1
EC50 [5]: 0.03 µM
Activity [8]: 6%
EC50 [9]: 10 µM

SMILES: Cc1oc(-c2ccccc2)nc1CCCCCCOC(C)(C)C(=O)O
EC50 [24]: 30 µM
Activity (Mus musculus [15]): 32%
EC50 [9]: 0.3 µM

SMILES: Cc1oc(-c2ccccc2)nc1CCCCC[C@H]1CO[C@@](C)(C(=O)O)OC1
EC50 [5]: 0.1 µM
Activity [8]: 34%
EC50 [9]: 0.3 µM
